# Measured values reported in PMC12573178, “Substrate-Guided Development of HDAC11-Selective Inhibitors Featuring α‑Amino Amide Zinc-Binding Groups” (ACS Omega, 2025).
# Several values for one entry are separate records, joined by “and”; a condition that tells them apart may be missing. Equal entries are not always repeated. Entries after “also recorded” stand apart in the source; their conditions may differ. Where two headings read alike, the source gives them in different places. Residues, ends and D or L forms follow the SMILES beside them. No end group written: not given here. ξ: configuration not given here. *: point of attachment. ξGly(tetradecyl) = CCCCCCCCCCCCCCC(N)C(=O)O; Myristoyl = CCCCCCCCCCCCCC(=O)*; X1 = CCCCCCCCCCCCCCC(S)C(=O)*
# Assays:
# [1] = biological target: T1, HDAC11 (Homo sapiens, UniProt Q96DB2); test: Substrate assay: incubation with HDAC11, UPLC-MS analysis of cleavage product; type: biochemical; settings: 50 μM compound, 10 or 100 nM HDAC11, 37 °C, 24 h
# T1 sequence (Q96DB2 1-347): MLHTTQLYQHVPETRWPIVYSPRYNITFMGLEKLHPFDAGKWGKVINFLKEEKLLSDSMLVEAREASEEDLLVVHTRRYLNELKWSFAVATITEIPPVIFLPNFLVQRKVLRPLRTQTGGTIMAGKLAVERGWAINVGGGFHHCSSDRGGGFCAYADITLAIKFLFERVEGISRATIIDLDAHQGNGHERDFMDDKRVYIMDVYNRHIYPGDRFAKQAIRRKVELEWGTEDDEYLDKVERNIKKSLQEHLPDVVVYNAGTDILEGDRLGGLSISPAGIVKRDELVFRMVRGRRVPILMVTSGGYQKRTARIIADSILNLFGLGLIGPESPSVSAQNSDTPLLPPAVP
# Procedure: Because acylated H3K9 peptides are known to be substrates of HDAC11, , it had to be analyzed if the presence of a substitution in close proximity to the hydrolyzable amide bond is sufficient to suppress the deacylation of the compound by HDAC11, thereby transforming a substrate into an inhibitor. Accordingly, 50 μM of the most promising compounds, specifically 2, 10, 17, and 18, were incubated in the presence of 10 or 100 nM of HDAC11 at 37 °C for 24 h, followed by UPLC–MS analysis. […] Consequently, compounds 17 and 18 were excluded from further analyses.
# The peptides were incubated at 50 μM, together with 10 or 100 nM HDAC11 in HDAC11 buffer for 24 h at 37 °C. The solution was then analyzed using UPLC–MS.
# F. UPLC-MS Data of the substrate test
# In order to ascertain whether peptides 2, 10, 17 and 18 are possible substrates of HDAC11, 50 µM of the peptides were incubated with 100 nM HDAC11 for 24 hours at 37°C. Subsequently, a sample of the solutions was subjected to analysis using UPLC-MS. The presence of the double-charged peptide representing the expected cleavage product Ac-TARKSTG-NH2 of 2, 10, 17 and 18 with the m/z ratio of [M+2H]2+ (381.45) was taken as an indicator of a HDAC11-catalysed reaction. […]
# exclusively HDAC11 in the assay buffer. No signal indicative for the product peptide was detected. […]
# Absorbance at 220 nm is shown. […]
# [2] = Stability in aqueous solution; type: physicochemical; settings: 37 °C for 24 h
# [3] = biological target: T1, HDAC11; test: HDAC11 inhibition, continuous fluorescence-based assay with fatty-acylated peptide substrate; type: biochemical; settings: for IC50: substrate Ac-EALPK(11-Abz-Aun)KY(3-NO2)GG-NH2 20 µM, triplicate, read-out: IC50 against HDAC11; for IC50 increase compared to 28: HDAC11
# Procedure: Inhibition of the enzymatic activity of HDACs was performed continuously for HDAC8, HDAC11, and SIRT2 and discontinuously for SIRT2, 3, and 6 using adequate substrates as described previously. , Experimental details are given in the Supporting Information.
# A. HDAC and SIRT deacylase activity assays
# Continuous in vitro HDAC inhibition assays
# The inhibitors were tested using 384-well plates (GreinerONe). After 5 min of incubation of the inhibitors together with the respective enzymes (HDAC8 = 2 nM, HDAC11 = 20 nM, SIRT2 = 1 nM), the reactions were always started by the addition of substrate for the Zn2+-dependent HDAC and by the addition of NAD+ for SIRT2. The reactions were performed in either HDAC8 buffer (20 mM HEPES, 140 mM NaCl, 10 mM MgCl 2, 1 mM tris(2-carboxyethyl)phosphine (TCEP), and 0.2 mg/ml BSA, pH 7.4 adjusted with NaOH), HDAC11 buffer (20 mM HEPES, 70 µM TCEP and 2 mg/ml BSA, pH 7.4 adjusted with NaOH) or SIRT buffer (20 mM Tris, 150 mM NaCl, 5 mM MgCl2 and 2 mg/ml BSA pH 7.8 adjusted with HCl), respectively. The thiotrifluoracetylated substrate Abz-SRGGK(thio-TFA)FFRR-NH2 (50 µM) […]
# Aun is N-(2-aminobenzoyl)-11-aminoundecanoyl, was used for HDAC11 and Ac-EALPKK(Myr)T-C(Fluorescein)-G-NH2 (40 nM) was used for SIRT2 1-3.
# The fluorescence increase was followed for 1 h with two reads per min using a PerkinElmer Envision […]
# The excitation wavelength for HDAC8 and 11 was 320 ± 8 nm and the […]
# Positive (enzyme, substrate, DMSO, and buffer) and negative
# (substrate, DMSO, and Buffer) controls were included in every measurement and were set as 100% and 0%, respectively. The measured values were normalized accordingly. All tests were performed in triplicates. The data were fitted using the GraphPad Prism8 software and kinetic values calculated through non-linear regression analysis. […]
# [4] = biological target: T1, HDAC11; test: Microscale thermophoresis (MST) binding; settings: 20 nM 32, varying concentrations of HDAC11, 25 °C
# Procedure: Microscale thermophoresis (MST) was performed using a Monolith NT.115 (Nanotemper) with standard capillaries (MO-K022). The reaction solution contained a dilution series (1:1) of 16 different concentrations of HDAC11 (0.48 nM to 16 μM) and 20 nM 32 in MST buffer (20 mM MOPS buffer (pH 7.4 adjusted with NaOH), 0.2 mg/mL BSA, and 70 μM TCEP) and 5% (v/v) DMSO. After 5 min of incubation, the samples were loaded into capillaries and measured at 25 °C with a Filter Nano-BLUE at an excitation power of 20% and an MST power of 40%. The resulting data were fitted by MO.Affinity Analysis software (Nanotemper) via MST curves and fluorescence signals.
# [5] = biological target: T1, HDAC11; parameters: method as in not printed per compound; settings: literature values, Figure 1; ref not printed per compound; read-out: IC50 as reported for HDAC11; cited from earlier work
# [6] = test system: global protein fatty acylation; parameters: method as in previous studies (number not given); settings: treatment with pan-HDAC inhibitor; ref previous studies (number not given); cited from earlier work
# [7] = biological target: T1, HDAC11; parameters: method as in number not given; settings: myristoylated 12-mer peptide; ref number not given; read-out: KM value as substrate of HDAC11; cited from earlier work
compound,measurement,setting,value
CCCCCCCCCCCCCCC(S)C(=O)NCCCC[C@H](NC(=O)[C@H](CCCNC(=N)N)NC(=O)[C@H](C)NC(=O)[C@@H](NC(C)=O)[C@@H](C)O)C(=O)N[C@@H](CO)C(=O)N[C@H](C(=O)NCC(N)=O)[C@@H](C)O (stereo partly shown) [Compound 2] (Ac-TARK(X1)STG-NH2; N-terminus and C-terminus assumed),Substrate properties / hydrolysis by HDAC11,[1],no single recognisable peak is present at the expected time; also recorded: not able to hydrolyze
same,Stability in aqueous solution,[2],completely stable
CCCCCCCCCCCCCCC(N)C(=O)NCCCC[C@H](NC(=O)[C@H](CCCNC(=N)N)NC(=O)[C@H](C)NC(=O)[C@@H](NC(C)=O)[C@@H](C)O)C(=O)N[C@@H](CO)C(=O)N[C@H](C(=O)NCC(N)=O)[C@@H](C)O (stereo partly shown) [Compound 10] (Ac-TARK(ξGly(tetradecyl))STG-NH2; N-terminus and C-terminus assumed),Substrate properties / hydrolysis by HDAC11,[1],no single recognisable peak is present at the expected time; also recorded: not able to hydrolyze
same,Stability in aqueous solution,[2],completely stable
CCCCCCSC[C@@H](N)C(=O)NCCCCC [Compound 25],IC50,[3],0.904 ± 0.118 µM
CCCCCCCCSC[C@@H](N)C(=O)NCCCCC [Compound 26],IC50,[3],0.399 ± 0.06 µM
CCCCCCCCCCSC[C@@H](N)C(=O)NCCCCC [Compound 27],IC50,[3],0.15 ± 0.0107 µM
CCCCCCCCCCCCSC[C@@H](N)C(=O)NCCCCC [Compound 28],IC50,[3],0.0561 ± 0.006 µM
CCCCCCCCCCCCSC[C@@H](N)C(=O)NCc1cn(C)nn1 [Compound 29],IC50 increase compared to 28,[3],more than 10 fold
CCCCCCCCCCCCSC[C@@H](N)C(=O)N1Cc2ccccc2C1 [Compound 30],IC50 increase compared to 28,[3],more than 10 fold
CCCCCCCCCCCCSC[C@@H](N)C(=O)NCCCC[C@H](NC(=O)[C@H](CCCCN)NC(=O)CCC(=O)NCCCOCCOCCOCCCNC(=O)c1ccc2c(c1)C(=O)OC21c2ccc(O)cc2Oc2cc(O)ccc21)C(N)=O [Compound 32],Kd,[4],0.271 µM and 0.27 µM
same,IC50,[3],0.537 µM
CCCCCOCCCCCNNC(=O)c1ccc(CNC(=O)c2ccccc2)cc1 [Compound B6],IC50,[5],0.0511 µM
"C/C=C1\NC(=O)[C@H]2CSSCC/C=C/[C@H](CC(=O)N[C@H](C(C)C)C(=O)N2)OC(=O)[C@H](C(C)C)NC1=O [Romidepsin (FK-228), Romidepsin]",IC50,[5],2.7 µM
"O=C(CCCCCCC(=O)Nc1ccccc1)NO [Vorinostat (SAHA), vorinostat]",Global protein fatty acylation,[6],decrease in global protein fatty acylation
KQTARK(Myristoyl)STGGWW [H3K9(Myr)],Km,[7],17.3 µM
